Consider two molecules from paper doi:10.1101/2025.10.05.680433v1 (biorxiv, 2025).

Common to all, as to experiment: ITC
Holding throughout (format): binding

In assay [1] the target is IGP1^ECD (Arabidopsis thaliana, UniProt F4I3K3). The settings on record: 10 mM Bis-Tris pH 6.0, 100 mM NaCl, 25 °C; LRR3-5 groove; 1:1 complex in crystal.
The target in assay [2] is IGP1^ECD (Arabidopsis thaliana, UniProt F4I3K3, C591D/C592D). The following applies: 10 mM Bis-Tris pH 6.0, 100 mM NaCl, 25 °C.
Assay [3] has as its target IGP1^ECD (Arabidopsis thaliana, UniProt F4I3K3, C591A/C592A). The settings on record: 10 mM Bis-Tris pH 6.0, 100 mM NaCl, 25 °C.
The target of assay [4] is IGP1^ECD (Arabidopsis thaliana, UniProt F4I3K3, W220A). The settings on record: 10 mM Bis-Tris pH 6.0, 100 mM NaCl, 25 °C.

pKd: −log10 of the molar value.

As a reminder, the pKd is −log10 of the Kd, conventionally taken in molar units. With `OC[C@H]1O[C@@H](O[C@H]2[C@H](O)[C@@H](O)[C@H](O[C@H]3[C@H](O)[C@@H](O)C(O)O[C@@H]3CO)O[C@@H]2CO)[C@H](O)[C@@H](O)[C@@H]1O` (stereo partly shown) [CEL3, cellotriose], the pKd at IGP1^ECD [1] was roughly 5.79.

As to `OC[C@H]1O[C@@H](O[C@H]2[C@H](O)[C@@H](O)[C@H](O[C@H]3[C@H](O)[C@@H](O)[C@H](O[C@H]4[C@H](O)[C@@H](O)C(O)O[C@@H]4CO)O[C@@H]3CO)O[C@@H]2CO)[C@H](O)[C@@H](O)[C@@H]1O` (stereo partly shown) [CEL4, cellotetraose], the pKd at IGP1^ECD [2] was roughly 4.75; on IGP1^ECD [3], roughly 5.65; on IGP1^ECD [4], roughly 4.73.
